Data taken from publication PMC3685872 (Bioorganic & medicinal chemistry, 2013).
pIC50: −log10 of the molar value. Each block holds one molecule with its values, some of them ahead of it.

Legend:
[1] = tested on: Jurkat T cell acute lymphoblastic leukemia cell line; experiment: Anti-leukemia AlamarBlue assay in Jurkat cells; type: cell-based, human; conditions: for loss in anti-leukemic potency compared to dimer 838 / loss in anti-leukemic potency compared to oxygenated counterpart: Jurkat cells; for loss in anti-leukemic potency compared to dimer 838: relative to 838; for loss in anti-leukemic potency compared to oxygenated counterpart: phosphoryl oxygen replaced with sulfur
CMV = conditions: cited from earlier work
[2] = tested on: PHA-stimulated peripheral blood mononuclear cells (PBMCs); experiment: Toxicity to nonmalignant PHA-stimulated PBMCs; type: cell-based; conditions: Homo sapiens, PBMC, 48 h, read-out: PHA-stimulated PBMC IC50
[3] = tested on: prostate cancer LNCaP cells; conditions: compared with standard drug doxorubicin; ref [12]; cited from earlier work

- Anti-leukemia IC50 ([1]; Jurkat T-ALL cells, 48 hours of drug treatment, AlamarBlue, average of triplicate experiments): essentially inactive
SMILES: CO[C@H]1O[C@@H]2O[C@@]3(C)CC[C@H]4[C@H](C)CC[C@@H]([C@H]1C)[C@@]24OO3 [Artemether, artemether, reference compound]
- activity against CMV (CMV; as previously determined, ref [9]): weak activity

SMILES: C[C@H]1[C@@H](CC(COP(=O)(O)Oc2ccccc2)C[C@H]2O[C@@H]3O[C@@]4(C)CC[C@H]5[C@H](C)CC[C@@H]([C@H]2C)[C@@]35OO4)O[C@@H]2O[C@@]3(C)CC[C@H]4[C@H](C)CC[C@@H]1[C@@]24OO3 (stereo partly drawn) [compound 762, monophenylphosphate ester]
- loss in anti-leukemic potency compared to dimer 838 [1]: 70 fold
- pIC50 [2]: ~4.40

SMILES: C[C@H]1[C@@H](CC(COP2(=O)Oc3ccccc3-c3ccccc3O2)C[C@H]2O[C@@H]3O[C@@]4(C)CC[C@H]5[C@H](C)CC[C@@H]([C@H]2C)[C@@]35OO4)O[C@@H]2O[C@@]3(C)CC[C@H]4[C@H](C)CC[C@@H]1[C@@]24OO3 (stereo partly drawn) [compound 836, dimer biphenylphosphate ester]
- loss in anti-leukemic potency compared to dimer 838 [1]: about half as efficacious

SMILES: C[C@H]1[C@@H](CC(COP(=O)(Oc2ccccc2)Oc2ccccc2)C[C@H]2O[C@@H]3O[C@@]4(C)CC[C@H]5[C@H](C)CC[C@@H]([C@H]2C)[C@@]35OO4)O[C@@H]2O[C@@]3(C)CC[C@H]4[C@H](C)CC[C@@H]1[C@@]24OO3 (stereo partly drawn) [compound 838, trioxane dimer diphenyl phosphate ester]
- potency at inhibiting growth of LNCaP cells [3]: more potent than the standard drug doxorubicin
- selectivity index (anti-CMV/cytotoxicity) (CMV; ref [10]): approximately 1500

SMILES: C[C@H]1[C@@H](CC(COP(=O)(OC2CCCCC2)OC2CCCCC2)C[C@H]2O[C@@H]3O[C@@]4(C)CC[C@H]5[C@H](C)CC[C@@H]([C@H]2C)[C@@]35OO4)O[C@@H]2O[C@@]3(C)CC[C@H]4[C@H](C)CC[C@@H]1[C@@]24OO3 (stereo partly drawn) [compound 851, dimer dicyclohexylphosphate ester]
- loss in anti-leukemic potency compared to dimer 838 [1]: about half as efficacious

SMILES: C[C@H]1[C@@H](CC(COP2(=S)Oc3ccccc3-c3ccccc3O2)C[C@H]2O[C@@H]3O[C@@]4(C)CC[C@H]5[C@H](C)CC[C@@H]([C@H]2C)[C@@]35OO4)O[C@@H]2O[C@@]3(C)CC[C@H]4[C@H](C)CC[C@@H]1[C@@]24OO3 (stereo partly drawn) [compound 853, dimer biphenylthiophosphate ester]
- loss in anti-leukemic potency compared to oxygenated counterpart [1]: ~ 9 fold

SMILES: C[C@H]1[C@@H](CC(COP(=S)(Oc2ccccc2)Oc2ccccc2)C[C@H]2O[C@@H]3O[C@@]4(C)CC[C@H]5[C@H](C)CC[C@@H]([C@H]2C)[C@@]35OO4)O[C@@H]2O[C@@]3(C)CC[C@H]4[C@H](C)CC[C@@H]1[C@@]24OO3 (stereo partly drawn) [compound 855, dimer diphenylthiophosphate ester]
- loss in anti-leukemic potency compared to oxygenated counterpart [1]: ~ 18 fold

SMILES: Cc1cccc(C)c1OP(=O)(OCC(C[C@H]1O[C@@H]2O[C@@]3(C)CC[C@H]4[C@H](C)CC[C@@H]([C@H]1C)[C@@]24OO3)C[C@H]1O[C@@H]2O[C@@]3(C)CC[C@H]4[C@H](C)CC[C@@H]([C@H]1C)[C@@]24OO3)Oc1c(C)cccc1C [compound 895, dimer bis-(2,6-dimethylphenyl)phosphate ester]
- loss in anti-leukemic potency compared to dimer 838 [1]: comparable potency

SMILES: CC(C)c1ccc(OP(=O)(OCC(C[C@H]2O[C@@H]3O[C@@]4(C)CC[C@H]5[C@H](C)CC[C@@H]([C@H]2C)[C@@]35OO4)C[C@H]2O[C@@H]3O[C@@]4(C)CC[C@H]5[C@H](C)CC[C@@H]([C@H]2C)[C@@]35OO4)Oc2ccc(C(C)C)cc2)cc1 [compound 923, dimer bis-(4-isopropylphenyl)phosphate ester]
- loss in anti-leukemic potency compared to dimer 838 [1]: 5 fold
